{"source": "patent US8772230B2", "about": "“Niacin and/or trigonelline as a muscle stimulant” (DSM IP Assets B.V., priority 2009, dated 2014)", "key": {"Female C57B1/6 mice [1]": {"system": "Female C57B1/6 mice", "conditions": "three weeks", "excerpt": "The gastrocnemius muscle from one hindlimb of the animals was removed to induce compensatory hypertrophy in the plantaris and soleus muscles by multiple mechanisms. This model increases the muscle weight under muscle load/training. It simulates the human condition of an average human who is physically active or an athlete to support skeletal muscle function during exercise.\n(§1) Female C57B1/6 mice were delivered at a weight of 18-20 g and acclimatized to the facilities for a period of one week. At the beginning of the study the animals were randomized into two groups (10 animals per group).\nThe animals were anesthetized and the left hindlimb of the animals was fixed. A small incision was made through the skin over the gastrocnemius muscle. The complete gastrocnemius muscle and its tendons were exposed. Both heads of the gastrocnemius muscle were carefully dissected from the underlying intact muscles and care was taken not to rupture nerves and vessels. The skin was closed with a silk and the animals were returned separately into their cages. […] All animals received an analgesic. Animals were treated for three weeks by gavage with trigonelline-hydrochloride at a daily dosage of 300 mg/kg BW and the control group received vehicle."}, "Female C57B1/6 mice [2]": {"system": "Female C57B1/6 mice", "description": "To test the effect of trigonelline in non-trained animals, we performed a maximal endurance test after a treatment period of three weeks.\nFemale C57B1/6 mice were delivered at a weight of 18-20 g and acclimatized to the facilities for a period of one week. At the beginning of the study the animals were randomized into two groups (10 animals per group). All mice were housed separately and had access to feed and water ad libidum. Animals were treated for three weeks by gavage with trigonelline-hydrochloride at a daily dosage of 300 mg/kg/BW and the control group received vehicle.\nFor acclimatization, animals were placed on the treadmill for 5 minutes after two weeks. The maximal endurance test was performed two day before the section of the animals."}, "Female C57B1/6 mice [3]": {"system": "Female C57B1/6 mice", "conditions": "three weeks tail suspension", "excerpt": "To extend our in vitro and in vivo results we were also interested in testing the effects of trigonelline during skeletal muscle unloading (atrophy conditions). Therefore we conducted a second in vivo study were the hindlimbs of the animals were unloaded to induce skeletal muscle atrophy.\nTail suspension leads to skeletal muscle atrophy in the unloaded hindlimbs of the animals.\nas §1\nThereafter the groups were placed in special cages and the hindlimbs were unloaded (tail suspension) for a duration of three weeks. All mice were housed separately and had access to feed and water ad libidum. Animals were treated for three weeks by gavage with trigonelline-hydrochloride at a daily dosage of 300 mg/kg/BW and the control group received vehicle."}, "[4]": {"system": "C2C12 mouse myoblast cells", "conditions": "10 μg/ml trigonelline monohydrate, 24 h, vs DMSO control", "protocol": "C2C12 cells were seeded on 96 well collagen-I plates (1600 cells/well) in growth medium (Dulbecco's modified Eagle's medium (DMEM) supplemented with 10% FBS, 2 mM L-Glutamine, 1 mM pyruvate, 50 IU/ml penicillin, 50 ug/ml streptavidin) until it reaches 100% confluency, approximately 3 days. […] Final DMSO concentration was standardized to 0.5% in all wells. Cells were cultured at 37° C., with 5% CO2.\nCells were fixed with 3.7% formaldehyde solution (37% formaldehyde diluted in growth medium, sterile filtered before used) for 10 min. at room temperature, and washed twice with 1×DPBS (1× Dulbecco's Phosphate Buffered Saline). After permeabilization with 0.1% TritonX-100 (diluted in 1×DPBS) for 2 min. the samples were blocked with 1×DPBS plus 2% BSA for 1 h. For myocyte labelling, the cells were labelled with 1:20 anti-alpha-myosin heavy chain antibody (MF-20) for 1 hour. The samples were washed with 1×DPBS and fluorescently labelled with secondary antibody (1:250 Alexa 488 IgG antimouse secondary antibody plus 1:2000 Hoechst in 1×DPBS) for 1 h. Finally, the cells were washed twice with 1×DPBS and plates were sealed for imaging on the ArrayScan® HCS Reader.\nFor image analysis myosin labelled myotubes were quantified on the ArrayScan HCS Reader using BioApplication Morphology Explorer.V2. Myocytes were selected with Object Area larger than 500 and Object Total Intensity greater than 1000."}, "[5]": {"conditions": "300 mg/kg BW daily by gavage, computer tomography"}, "[6]": {"conditions": "300 mg/kg BW daily by gavage, non-operated leg"}, "[7]": {"conditions": "300 mg/kg/BW daily by gavage, three weeks, untrained mice"}, "[8]": {"conditions": "300 mg/kg/BW daily by gavage, computer tomography"}}, "note": "Counter-ions that a name gives are not always drawn. Like-named read-outs stand apart in the source and are kept apart here. Marks after values point to notes of the source that are not given here.", "data": [{"smiles": "C[n+]1cccc(C(=O)[O-])c1", "note": "[Trigonelline-hydrochloride, trigonelline-hydrochloride]", "values": [{"measurement": "Muscle cross-sectional area - non operated leg", "setting": "Female C57B1/6 mice [1]; [5]", "value": 32.15, "unit": "mm^2"}, {"measurement": "Muscle cross-sectional area - operated leg", "setting": "Female C57B1/6 mice [1]; [5]", "value": 23.72, "unit": "mm^2"}, {"measurement": "Total leg cross-sectional area - non operated leg", "setting": "Female C57B1/6 mice [1]; [5]", "value": 35.05, "unit": "mm^2"}, {"measurement": "Total leg cross-sectional area - operated leg", "setting": "Female C57B1/6 mice [1]; [5]", "value": 26.79, "unit": "mm^2"}, {"measurement": "Gastrocnemius-Plantaris-Soleus muscle weight (whole leg)/body weight (non-operated leg)", "setting": "Female C57B1/6 mice [1]; [6]", "value": 5.50, "unit": "mg/g"}, {"measurement": "M. gastrocnemius wet weight (non-operated leg)", "setting": "Female C57B1/6 mice [1]; [6]", "value": 99.3, "unit": "mg"}, {"measurement": "M. gastrocnemius wet weight/body weight (non-operated leg)", "setting": "Female C57B1/6 mice [1]; [6]", "value": 4.57, "unit": "mg/g"}, {"measurement": "M. plantaris wet weight (non-operated leg)", "setting": "Female C57B1/6 mice [1]; [6]", "value": 13, "unit": "mg"}, {"measurement": "M. plantaris wet weight/body weight (non-operated leg)", "setting": "Female C57B1/6 mice [1]; [6]", "value": 0.60, "unit": "mg/g"}, {"measurement": "M. soleus wet weight (non-operated leg)", "setting": "Female C57B1/6 mice [1]; [6]", "value": 7.2, "unit": "mg"}, {"measurement": "M. soleus wet weight/body weight (non-operated leg)", "setting": "Female C57B1/6 mice [1]; [6]", "value": 0.33, "unit": "mg/g"}, {"measurement": "Gastrocnemius-Plantaris-Soleus muscle weight (whole leg)/body weight", "setting": "Female C57B1/6 mice [2]; [7]", "value": 5.41, "unit": "mg/g"}, {"measurement": "M. gastrocnemius wet weight", "setting": "Female C57B1/6 mice [2]; [7]", "value": 100.66, "unit": "mg"}, {"measurement": "M. gastrocnemius wet weight/body weight", "setting": "Female C57B1/6 mice [2]; [7]", "value": 4.57, "unit": "mg/g"}, {"measurement": "M. plantaris wet weight", "setting": "Female C57B1/6 mice [2]; [7]", "value": 12.12, "unit": "mg"}, {"measurement": "M. plantaris wet weight/body weight", "setting": "Female C57B1/6 mice [2]; [7]", "value": 0.55, "unit": "mg/g"}, {"measurement": "M. soleus wet weight", "setting": "Female C57B1/6 mice [2]; [7]", "value": 6.29, "unit": "mg"}, {"measurement": "M. soleus wet weight/body weight", "setting": "Female C57B1/6 mice [2]; [7]", "value": 0.29, "unit": "mg/g"}, {"measurement": "Mean running time", "setting": "Female C57B1/6 mice [2]; 300 mg/kg/BW daily by gavage, three weeks, untrained mice, treadmill", "value": 38.70, "unit": "min"}, {"measurement": "Gastrocnemius-Plantaris-Soleus muscle weight (whole leg)/body weight", "setting": "Female C57B1/6 mice [3]; 300 mg/kg/BW daily by gavage", "value": "4.89* mg/g"}, {"measurement": "M. gastrocnemius wet weight", "setting": "Female C57B1/6 mice [3]; 300 mg/kg/BW daily by gavage", "value": "86.01* mg"}, {"measurement": "M. gastrocnemius wet weight/body weight", "setting": "Female C57B1/6 mice [3]; 300 mg/kg/BW daily by gavage", "value": "4.16* mg/g"}, {"measurement": "M. plantaris wet weight", "setting": "Female C57B1/6 mice [3]; 300 mg/kg/BW daily by gavage", "value": 10.53, "unit": "mg"}, {"measurement": "M. plantaris wet weight/body weight", "setting": "Female C57B1/6 mice [3]; 300 mg/kg/BW daily by gavage", "value": "0.51* mg/g"}, {"measurement": "M. soleus wet weight", "setting": "Female C57B1/6 mice [3]; 300 mg/kg/BW daily by gavage", "value": 4.62, "unit": "mg"}, {"measurement": "M. soleus wet weight/body weight", "setting": "Female C57B1/6 mice [3]; 300 mg/kg/BW daily by gavage", "value": 0.22, "unit": "mg/g"}, {"measurement": "Muscle cross-sectional area", "setting": "Female C57B1/6 mice [3]; [8]", "value": 27.8, "unit": "mm^2"}, {"measurement": "Total leg cross-sectional area", "setting": "Female C57B1/6 mice [3]; [8]", "value": 30.4, "unit": "mm^2"}, {"measurement": "increase of wet weight of the gastrocnemius muscle (relative to the body weight)", "setting": "Female C57B1/6 mice [3]; trigonelline-hydrochloride 300 mg/kg/BW daily, vs control (FIG. 3), statistically significant", "value": 9, "unit": "%"}]}, {"smiles": "C[n+]1cccc(C(=O)[O-])c1", "note": "[Trigonelline]", "values": [{"measurement": "increase of wet weight of the non-operated gastrocnemius muscle (relative to the body weight)", "setting": "Female C57B1/6 mice [1]; trigonelline-hydrochloride 300 mg/kg BW daily, vs control (FIG. 2)", "value": 7, "unit": "%"}, {"measurement": "wet weight of the gastrocnemius muscle vs control (in words)", "setting": "Female C57B1/6 mice [2]; three weeks treatment, untrained mice (FIG. 4)", "value": "equal in both groups"}, {"measurement": "increase of differentiation in C2C12 mouse myoblast cells (number of myocytes)", "setting": "[4]", "value": 36, "unit": "%"}]}]}
